Our source for the IC50 and Ki values is ChEMBL document CHEMBL1909046, “DrugMatrix in vitro pharmacology data”.

For one test, the target named is T1, Androgen receptor (Rattus norvegicus, UniProt P15207). Further: in other assays of this panel Not Active means under 50% inhibition at 10 µM.
T1 sequence (P15207 whole entry): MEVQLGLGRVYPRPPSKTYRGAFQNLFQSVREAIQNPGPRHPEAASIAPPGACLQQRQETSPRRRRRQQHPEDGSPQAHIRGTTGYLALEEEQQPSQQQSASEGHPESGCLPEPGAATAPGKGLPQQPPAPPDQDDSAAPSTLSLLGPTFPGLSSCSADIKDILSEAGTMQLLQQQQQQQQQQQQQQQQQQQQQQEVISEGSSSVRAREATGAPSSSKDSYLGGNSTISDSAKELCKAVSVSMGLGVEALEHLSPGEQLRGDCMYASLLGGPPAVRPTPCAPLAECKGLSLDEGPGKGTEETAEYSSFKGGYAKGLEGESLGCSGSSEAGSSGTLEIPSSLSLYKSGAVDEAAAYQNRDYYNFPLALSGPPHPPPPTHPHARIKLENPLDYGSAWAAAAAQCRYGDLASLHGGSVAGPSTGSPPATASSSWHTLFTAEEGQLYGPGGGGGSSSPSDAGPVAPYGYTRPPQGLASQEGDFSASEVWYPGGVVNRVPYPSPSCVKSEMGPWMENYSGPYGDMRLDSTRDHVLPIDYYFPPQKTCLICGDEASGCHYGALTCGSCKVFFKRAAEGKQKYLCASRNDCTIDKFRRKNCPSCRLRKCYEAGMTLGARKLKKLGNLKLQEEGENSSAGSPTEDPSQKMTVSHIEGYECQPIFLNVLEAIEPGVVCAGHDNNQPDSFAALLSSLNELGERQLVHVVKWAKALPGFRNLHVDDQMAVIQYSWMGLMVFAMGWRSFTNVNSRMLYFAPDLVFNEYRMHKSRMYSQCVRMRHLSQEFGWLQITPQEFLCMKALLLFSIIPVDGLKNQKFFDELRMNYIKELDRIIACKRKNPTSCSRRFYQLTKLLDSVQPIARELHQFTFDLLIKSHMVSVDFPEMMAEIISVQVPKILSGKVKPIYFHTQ

The target in test [1] is T2, Alpha-1D adrenergic receptor (Homo sapiens, UniProt P25100). Further: in other assays of this panel Not Active means under 50% inhibition at 10 µM.
T2 sequence (P25100 whole entry): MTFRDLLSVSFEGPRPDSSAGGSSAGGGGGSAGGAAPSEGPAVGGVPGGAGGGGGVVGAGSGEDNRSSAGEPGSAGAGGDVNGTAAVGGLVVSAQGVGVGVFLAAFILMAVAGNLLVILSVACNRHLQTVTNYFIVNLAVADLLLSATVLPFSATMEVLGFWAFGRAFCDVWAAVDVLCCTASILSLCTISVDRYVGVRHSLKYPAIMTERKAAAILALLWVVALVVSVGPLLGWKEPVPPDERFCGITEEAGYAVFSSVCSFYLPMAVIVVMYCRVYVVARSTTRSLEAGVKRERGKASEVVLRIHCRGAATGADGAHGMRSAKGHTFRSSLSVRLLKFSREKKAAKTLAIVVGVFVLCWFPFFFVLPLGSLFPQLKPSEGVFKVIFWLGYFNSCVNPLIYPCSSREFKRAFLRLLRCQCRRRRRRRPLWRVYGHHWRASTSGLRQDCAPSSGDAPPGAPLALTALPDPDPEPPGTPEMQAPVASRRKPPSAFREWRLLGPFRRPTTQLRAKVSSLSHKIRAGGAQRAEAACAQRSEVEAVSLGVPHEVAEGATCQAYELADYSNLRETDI
The test is classed as cell membranes, HEK293, Membrane. The conditions noted are these: hek293.

The target of the next test is T3, Substance-K receptor (Homo sapiens, UniProt P21452). Further: in other assays of this panel Not Active means under 50% inhibition at 10 µM.
T3 sequence (P21452 whole entry): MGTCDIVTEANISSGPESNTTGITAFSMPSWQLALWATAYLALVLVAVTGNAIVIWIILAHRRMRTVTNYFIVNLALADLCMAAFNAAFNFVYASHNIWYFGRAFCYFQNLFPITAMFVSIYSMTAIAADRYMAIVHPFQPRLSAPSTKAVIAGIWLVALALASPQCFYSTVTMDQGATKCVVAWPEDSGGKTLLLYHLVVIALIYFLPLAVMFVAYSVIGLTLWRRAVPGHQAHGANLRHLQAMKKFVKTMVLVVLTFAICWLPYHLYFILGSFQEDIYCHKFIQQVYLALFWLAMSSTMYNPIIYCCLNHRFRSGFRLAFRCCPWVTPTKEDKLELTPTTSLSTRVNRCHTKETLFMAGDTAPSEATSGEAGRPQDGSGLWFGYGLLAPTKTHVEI
The class given is cell membranes, CHO, Membrane.

Test [2] has as its target Epidermal growth factor receptor (Homo sapiens, UniProt P00533). The test can be described thus: DRUGMATRIX: Protein Tyrosine Kinase, EGF Receptor enzyme inhibition (substrate: Poly(Glu:Tyr)). The class given is cell-based, Insect cells. As to conditions: insect cells; Not Active = under 50% inhibition at 10 µM.

Take NYSTATIN: the concentration for half-maximal inhibition (IC50) entry (on Androgen receptor; in test [1]; against Substance-K receptor (cho); in test [2]) was “Not Active” each time. Moreover, the Ki entry (at Androgen receptor; in test [1]; on Substance-K receptor (cho); in test [2]) was “Not Active” in each case.
As to `O=c1cnn([C@@H]2O[C@H](CO)[C@@H](O)[C@H]2O)c(=O)[nH]1` [6-AZAURIDINE], the 50% inhibitory concentration (IC50) entry (against Androgen receptor; in test [1]; against Substance-K receptor (cho); in test [2]) was “Not Active” in each case.
Turning to `O=c1cc(N2CCOCC2)oc2c(-c3ccccc3)cccc12` [LY-294002], the half-maximal inhibitory concentration (IC50) result (against Androgen receptor; in test [1]; against Substance-K receptor (cho)) was “Not Active” in each case.
Take `CC(C)NNC(=O)c1ccncc1` [IPRONIAZID]: the IC50 entry (against Androgen receptor; in test [1]; at Substance-K receptor (cho); in test [2]) was “Not Active” in each case.
Regarding GRAMICIDIN, the IC50 – broadly, the midpoint of a concentration-inhibition curve – against Androgen receptor is “Not Active”; in test [1], “Not Active”; on Substance-K receptor (cho, read-out: IC50), 4.56 µM; in test [2], “Not Active”. The Ki (commonly a measure of affinity in units of concentration, obtained from inhibition or displacement) at Androgen receptor is “Not Active”; in test [1] it was “Not Active”; at Substance-K receptor (cho, read-out: Ki) it was 1520 nM; in test [2] it was “Not Active”.
With `CC(C)NCC(O)COc1cccc2[nH]ccc12` (stereo not given) [PINDOLOL], the IC50 result (against Androgen receptor; in test [1]; against Substance-K receptor (cho); in test [2]) was “Not Active” throughout.
`COc1ccc2c3c1O[C@H]1C[C@@H](O)C=C[C@@]31CCN(C)C2` [GALANTAMINE]: the IC50 entry (against Androgen receptor; in test [1]; against Substance-K receptor (cho); in test [2]) was “Not Active” throughout.
In the case of `CCC1(CCC(C)C)C(=O)NC(=O)NC1=O` [AMOBARBITAL], the IC50 result (against Androgen receptor; in test [1]; against Substance-K receptor (cho); in test [2]) was “Not Active” each time.
As for `OC(CCCN1CCCCC1)(c1ccccc1)c1ccccc1` [DIPHENIDOL], the IC50 result (against Androgen receptor; in test [1]; against Substance-K receptor (cho); in test [2]) was “Not Active” each time.
Consider `CC(=O)O[C@H]1C(=O)[C@@]2(C)[C@H]([C@H](OC(=O)c3ccccc3)[C@]3(O)C[C@H](OC(=O)[C@H](O)[C@@H](NC(=O)c4ccccc4)c4ccccc4)C(C)=C1C3(C)C)[C@]1(OC(C)=O)CO[C@@H]1C[C@@H]2O` [PACLITAXEL], for which the IC50 result against Androgen receptor is “Not Active”; in test [1], “Not Active”; at Substance-K receptor (read-out: IC50) it was 6.12 µM; in test [2], “Not Active”. The inhibition constant (Ki) at Substance-K receptor (read-out: Ki) came out at 2040 nM.
As for `CN(C)[C@@H]1C(O)=C(C(N)=O)C(=O)[C@@]2(O)C(O)=C3C(=O)c4c(O)ccc(Cl)c4[C@@](C)(O)[C@H]3C[C@@H]12` [CHLORTETRACYCLINE], the IC50 entry (on Androgen receptor; in test [1]; against Substance-K receptor (cho); in test [2]) was “Not Active” each time.
Take `Nc1ccn([C@@H]2O[C@H](CO)[C@@H](O)C2(F)F)c(=O)n1` [GEMCITABINE]: the concentration for half-maximal inhibition (IC50) entry (in test [1]; against Substance-K receptor (cho); in test [2]) was “Not Active” each time.
With `Nc1ccn([C@@H]2O[C@H](CO)[C@@H](O)[C@@H]2O)c(=O)n1` [CYTARABINE], the half-inhibitory concentration (IC50) result (in test [1]; on Substance-K receptor (cho); in test [2]) was “Not Active” throughout.
`C=CCc1ccc(O)c(OC)c1` [EUGENOL]: the IC50 entry (in test [1]; against Substance-K receptor (cho); in test [2]) was “Not Active” each time.
Regarding `CCn1cc(C(=O)O)c(=O)c2cnc(N3CCCC3)nc21` [PIROMIDIC ACID], the IC50 result (in test [1]; on Substance-K receptor (cho); in test [2]) was “Not Active” throughout.
In the case of `COC(=O)Nc1nc2ccc(C(=O)c3cccs3)cc2[nH]1` [NOCODAZOLE], the IC50 result (in test [1]; against Substance-K receptor (cho); in test [2]) was “Not Active” throughout.
With `Cc1nnc2n1-c1ccc(Cl)cc1C(c1ccccc1)=NC2` [ALPRAZOLAM], the half-inhibitory concentration (IC50) entry (in test [1]; on Substance-K receptor (cho); in test [2]) was “Not Active” in each case.
